Data reported in patent US6180653A, “Aminopyrazole derivatives” (Banyu Pharmaceutical Co., Ltd., priority 1996, dated 2001).

Target: T1, human NPY Y5 receptor (Homo sapiens, UniProt Q15761)
T1 construct: expressed in transfected cells
T1 sequence (Q15761 1-445): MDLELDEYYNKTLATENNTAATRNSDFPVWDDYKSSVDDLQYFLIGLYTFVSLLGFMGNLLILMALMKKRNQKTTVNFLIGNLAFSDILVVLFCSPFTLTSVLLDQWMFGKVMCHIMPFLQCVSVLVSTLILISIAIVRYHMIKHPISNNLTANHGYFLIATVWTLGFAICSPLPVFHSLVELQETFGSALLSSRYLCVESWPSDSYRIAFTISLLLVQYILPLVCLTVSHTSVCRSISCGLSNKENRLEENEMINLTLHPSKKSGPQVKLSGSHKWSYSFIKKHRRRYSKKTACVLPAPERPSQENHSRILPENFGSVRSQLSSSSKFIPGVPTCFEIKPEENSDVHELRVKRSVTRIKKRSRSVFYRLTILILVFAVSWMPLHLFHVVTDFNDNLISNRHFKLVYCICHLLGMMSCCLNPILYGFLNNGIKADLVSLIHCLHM
Test: test of inhibition of NPY binding ([125I] peptide YY binding to membranes of NPY Y5 receptor-expressing cells)
Conditions: [125I] peptide YY 20,000 cpm, 25° C., 2 hours, pH 7.4; membranes of transfected COS-7, CHO or LM(tk-) cells; read-out: concentration needed to inhibit 50% of the specific binding to the peptide YY (IC50 value)
Source text: cDNA Sequence encoding a human NPY Y5 receptor [International Publication WO 96/16542] was cloned into expression vectors pcDNA3, pRc/RSV (manufactured by Invitrogen) and pCI-neo (manufactured by Promega). Using the cationic lipid method [see Proceedings of the National Academy of Science of the United States of America, vol.84, p.7413 (1987)], host cells COS-7, CHO and LM(tk-) (American Type Culture Collection) were transfected with the thus prepared expression vectors to obtain cells in which the NPY Y5 receptor had been expressed.
Each of the membrane preparations thus prepared from the cells in which the NPY Y5 receptor had been expressed was incubated together with each compound to be tested and 20,000 cpm of [^125 I,] peptide YY (manufactured by Amersham) at 25° C. for 2 hours in an assay buffer solution (25 mM HEPES buffer, pH 7.4, containing 10 mM magnesium chloride, 1 mM phenylmethylsulfonyl fluoride and 0.1% bacitracin) and then, the reaction mixture was filtered through a glass filter GF/C. After washing with 50 mM Tris buffer, pH 7.4, containing 0.3% BSA, radioactivity on the glass filter was measured using a gamma counter. […]

Structure (SMILES): COc1ccc(-c2cc(NC(=O)Cc3ccc4ccccc4c3)[nH]n2)cc1OC [Example 6]
- IC50: 8.3 nM
